In paper PMC11121672, “Screening of Small-Molecule Libraries Using SARS-CoV-2-Derived Sequences Identifies Novel Furin Inhibitors” (International Journal of Molecular Sciences, 2024):

target: T1, Furin (Homo sapiens, UniProt P09958); assay: fluorogenic AMC peptide cleavage assay, soluble furin in conditioned HEK-293T medium without further purification; assay type: biochemical
T1 construct: soluble Furin (sFur), truncated before its transmembrane domain (BTMD)
T1 sequence (P09958 108-715): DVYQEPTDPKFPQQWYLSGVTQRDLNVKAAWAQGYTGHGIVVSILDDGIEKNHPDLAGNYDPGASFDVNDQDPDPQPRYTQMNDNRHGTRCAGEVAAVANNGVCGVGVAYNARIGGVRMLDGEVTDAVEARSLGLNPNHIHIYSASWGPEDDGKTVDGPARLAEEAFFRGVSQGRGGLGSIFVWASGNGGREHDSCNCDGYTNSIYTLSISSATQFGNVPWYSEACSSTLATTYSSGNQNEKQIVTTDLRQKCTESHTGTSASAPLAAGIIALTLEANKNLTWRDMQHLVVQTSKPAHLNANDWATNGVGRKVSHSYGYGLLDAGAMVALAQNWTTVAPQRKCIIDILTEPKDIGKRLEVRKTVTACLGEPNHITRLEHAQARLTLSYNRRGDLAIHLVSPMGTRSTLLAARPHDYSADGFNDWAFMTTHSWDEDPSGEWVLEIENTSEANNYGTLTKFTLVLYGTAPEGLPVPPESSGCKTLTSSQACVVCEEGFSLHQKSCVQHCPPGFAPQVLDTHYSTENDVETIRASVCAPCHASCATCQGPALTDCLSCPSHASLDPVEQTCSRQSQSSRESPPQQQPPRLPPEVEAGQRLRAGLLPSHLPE

| Structure (SMILES) | IC50 [µM] |
| --- | --- |
| Cc1ccc(N(CCC(=O)O)C2=NC(=O)C(=Cc3ccc(Br)s3)S2)cc1Cl [P3, 3-((5-((5-Bromothiophen-2-yl)methylene)-4-oxo-4,5-dihydrothiazol-2-yl)(3-chloro-4-methylphenyl)amino)propanoic acid] | 35 |
| CN(C)c1ccc(C=C2SC(N(CCC(=O)O)c3ccc(Cl)cc3)=NC2=O)cc1 [P7, 3-((4-Chlorophenyl)(5-(4-(dimethylamino)benzylidene)-4-oxo-4,5-dihydrothiazol-2-yl)amino)propanoic acid] | 62 |
| Cc1ccc(N(CCC(=O)O)C2=NC(=O)C(=Cc3cccs3)S2)cc1Cl [P16, 3-((3-Chloro-4-methylphenyl)(4-oxo-5-(thiophen-2-ylmethylene)-4,5-dihydrothiazol-2-yl)amino)propanoic acid] | 79 |

target: T1, Furin; assay: fluorogenic AMC peptide cleavage assay, […] dose response, not sigmoidal; assay type: cell-based

| Structure (SMILES) | fluorogenic AMC peptide cleavage assay, 2.5-100 μg/mL dose response, not sigmoid |
| --- | --- |
| Cc1ccc(Cl)cc1N(CCC(=O)O)c1nc2c(s1)C(=O)c1ccccc1C2=O [P5, 3-((5-Chloro-2-methylphenyl)(4,9-dioxo-4,9-dihydronaphtho[2,3-d]thiazol-2-yl)amino)propanoic acid] | P3, P5, P7, P9, P13, and P16—were confirmed as novel Furin inhibitors, showing typical dose-dependent activity |
| O=C(O)CCN(c1ccc(Cl)cc1)c1nc2c(s1)C(=O)c1ccccc1C2=O [P9, 3-((4-Chlorophenyl)(4,9-dioxo-4,9-dihydronaphtho[2,3-d]thiazol-2-yl)amino)propanoic acid] | P3, P5, P7, P9, P13, and P16—were confirmed as novel Furin inhibitors, showing typical dose-dependent activity |
| CCOC(=O)C=C(C)n1c2c(=O)c3ccccc3c(=O)c=2oc2ccc([N+](=O)[O-])cc21 [P13, Ethyl 3-(2-nitro-6,11-dioxo-6,11-dihydro-12H-benzo[b]phenoxazin-12-yl)but-2-enoate] | P3, P5, P7, P9, P13, and P16—were confirmed as novel Furin inhibitors, showing typical dose-dependent activity |
